These results are taken from patent US9107914B2, “Beta-carbolines for use in the treatment of hearing loss and vertigo” (AudioCure Pharma GmbH, priority 2009, dated 2015).

Test [1] has as its system BDNF, GDNF, NGF and NPY in human SH-SY5Y neuroblastoma cells. Nature of the test: Gene expression of growth factors by reverse transcriptase-PCR (Table 2 summary). Also: key: +: marginally better than 9-methyl-β-carboline; ±: equal to 9-methyl-β-carboline; −: marginally worse than 9-methyl-β-carboline. The format is cell-based. The following applies: after 2 and 14 days. The protocol: Next, it was investigated, whether the substances could induce the formation of nerve growth factors in human SH-SY5Y neuroblastoma cell. After 2 and 14 days the cells were harvested and the expression of the target gene and the house keeping gene was determined via reverse transcriptase-PCR.
The effects of the other inventive β-carbolines (compounds A-L and VI-XX) on the gene expression of BDNF, GDNF, NGF and NPY were determined, as described above, in human SH-SY5Y neuroblastoma cells after 2 and 14 days.

Test [2] has as its system human SH-SY5Y neuroblastoma cells. Nature of the test: Differentiation model / neurite length in human neuroblastoma cells. As to differentiation / neurite length in comparison to 9-methyl-β-carboline: key: +: marginally better than 9-methyl-β-carboline; ±: equal to 9-methyl-β-carboline; −: marginally worse than 9-methyl-β-carboline. The format is cell-based. The settings on record: 14 days; for differentiation / neurite length in comparison to 9-methyl-β-carboline: SH-SY5Y cells. An excerpt: Human neuroblastoma cells were utilised for this model. These are permanent cells, which are present as an indifferent type in culture. They can be activated to differentiate, i.e. transformation into neuronal cells, by addition of specific substances such as retinoic acid, […] (BDNF) or activator of the enzyme, protein kinase C to the culture medium. We used this cell system to analyse whether beta-carbolines can transform the indifferent cells into the neuronal type. Criteria were: less proliferation (less cells per field of view); smaller cell bodies (transformation from the indifferent type to the neuronal type); cytodendrites (neuritis), which provide connections to neighbouring cells or clusters of neighbouring cells.
Human SH-SY5Y neuroblastoma cells were incubated in culture for 14 days with solvent (Ko) or test substance. A shift of the graph to the right side for a test substance, pointed to an increase of neurite length, when compared to the graph for the control substance. Statistical differences between the treated groups were calculated with the Tukey's Multiple Comparison-Test.
Shown are the cumulative frequency distributions of neurite lengths, determined in at least 20 randomly selected visual fields (each 640.000 μm^2) in three independent experiments. A steep rise pointed to a predominance of short neuritis, wherein for example in control cells, a less steep rise signified a greater number of longer neurites. The horizontal maximum indicated the maximal neurite length of the respective treatment group. […] The effects are dose- and substance-dependent: 1-methyl-β-carboline <6-methoxy-9-methyl-β-carboline <9-methyl-β-carboline <9-fluorethyl-β-carboline).
The effects of the other inventive β-carbolines (compounds A-L and VI-XX) on neurite length were determined, as described above, in human SH-SY5Y neuroblastoma cells after 14 days.

For another test, the system named is inner ear of guinea pigs. Nature of the test: Prophylaxis of hearing damages in an animal model, gentamicin and etacrynic acid (Example 30). The settings on record: infusion to the round window recess, gentamicin and etacrynic acid i.v. The format is in vivo. The protocol:
A solution containing β-carboline was infused continuously into the recess in front of the membrane of the round window of guinea pigs by a osmotic mini-pump for three days. The following β-carbolines were tested individually in this experiment: 9-methyl-β-carboline, compounds XI, XII, XVIII, XIX as well as C to L.
Then, a standard dose of gentamicin and etacrynic acid was injected intravenously into guinea pigs. Gentamicin and etacrynic acid damage the inner ear. Typically, they are used as toxins to induce deafness in such studies. The infusion was continued for further two days. Then, the electrophysiological activity of the nerve cells of the brain stem, which transmit the impulses of the inner ear, was deduced after acoustic irradiation of the ear with […]. The non-β-carboline-treated ear served as intraindividual control (Prieskorn D M, Miller J M. Technical report: chronic and acute intracochlear infusion in rodents. Hear Res, 2000; 140(1-2): 212-215). Moreover, animals were infused with 9-Me-BC only but not with gentamicin as a further control.
The measured electrophysiological activity of the nerve cells of the acoustic nerve (hearing threshold) served as a measure of the degree of therapeutic effect of the used β-carbolines on the inner ear. As can be learned from Table 3, the used β-carbolines show the increase in electrophysiological activity of the nerve cells of the acoustic nerve. It can be concluded from this that β-carbolines are useful for the treatment of hearing damages, vertigo, and vestibular disorders.

Test [3] concerns cells of the spiral ganglion of the inner ear. The settings on record: 48 hours of culture; cited from earlier work.

Take `CC(C)Cn1c2ccccc2c2ccncc21` [compound E]: the “gene expression of BDNF, GDNF, NGF and NPY in comparison to 9-methyl-β-carboline” value (from here on “gene expression of BDNF, GDNF”) in test [1] is reported as “±”. The “differentiation / neurite length in comparison to 9-methyl-β-carboline” value (“differentiation / neurite length” below) in test [2] is “+”. Besides, the “effect on the inner ear (electrophysiological activity, hearing threshold) in comparison to 9-methyl-β-carboline” value with inner ear of guinea pigs is given as “−”.

Regarding `C#CCn1c2ccccc2c2ccncc21` [compound H], the “gene expression of BDNF, GDNF” value in test [1] is reported as “±”. Moreover, the “differentiation / neurite length” value in test [2] was “+”. Besides, the “effect on the inner ear (electrophysiological activity, hearing threshold) in comparison to 9-methyl-β-carboline” value in the test on inner ear of guinea pigs is on record as “+”.

Consider `CCn1c2ccccc2c2ccncc21` [compound F], for which the “gene expression of BDNF, GDNF” value in test [1] is reported as “±”. Besides, the “differentiation / neurite length” value in test [2] was “±”. For the same molecule, the “effect on the inner ear (electrophysiological activity, hearing threshold) in comparison to 9-methyl-β-carboline” value with inner ear of guinea pigs is “±”.

In the case of `COc1ccc2c(c1)c1ccncc1n2C1CC1` [compound (XI)], the “gene expression of BDNF, GDNF” value in test [1] was “±”. The “differentiation / neurite length” value in test [2] is “+”. Further, the “effect on the inner ear (electrophysiological activity, hearing threshold) in comparison to 9-methyl-β-carboline” value in the test with inner ear of guinea pigs is “±”.

For the molecule `CCCn1c2ccccc2c2ccncc21` [compound A], the “gene expression of BDNF, GDNF” value in test [1] was “−”. Besides, the “differentiation / neurite length” value in test [2] is “−”. Also, the “effect on the inner ear (electrophysiological activity, hearing threshold) in comparison to 9-methyl-β-carboline” value in the test with inner ear of guinea pigs is listed as “−”.

In the case of `CCCCCCCCCCCCCCn1c2ccccc2c2ccncc21` [compound C], in test [1], the “gene expression of BDNF, GDNF” value is on record as “±”. For the same molecule, the “differentiation / neurite length” value in test [2] is given as “±”. For the same molecule, the “effect on the inner ear (electrophysiological activity, hearing threshold) in comparison to 9-methyl-β-carboline” value in the test on inner ear of guinea pigs is recorded as “+”.

Consider `Cn1c2ccc(OC(F)(F)F)cc2c2ccncc21` [compound (XII)], for which the “gene expression of BDNF, GDNF” value in test [1] is “+”. In addition, in test [2], the “differentiation / neurite length” value is recorded as “+”. The “effect on the inner ear (electrophysiological activity, hearing threshold) in comparison to 9-methyl-β-carboline” value in the test with inner ear of guinea pigs is given as “+”.

Consider `COc1ccc2c(c1)c1ccncc1n2C(C)C` [compound (VII)], for which the “gene expression of BDNF, GDNF” value in test [1] is listed as “±”. The “differentiation / neurite length” value in test [2] is reported as “−”. Also, in the test on inner ear of guinea pigs, the “effect on the inner ear (electrophysiological activity, hearing threshold) in comparison to 9-methyl-β-carboline” value is given as “−”.

In the case of `Cc1ccc2c(c1)c1ccncc1n2C` [compound (XVII)], the “gene expression of BDNF, GDNF” value in test [1] is on record as “±”. Besides, the “differentiation / neurite length” value in test [2] is given as “±”. In addition, the “effect on the inner ear (electrophysiological activity, hearing threshold) in comparison to 9-methyl-β-carboline” value in the test on inner ear of guinea pigs was “−”.

On to `CC(C)C(C)Cn1c2ccccc2c2ccncc21` (stereo not drawn) [compound K], for which the “gene expression of BDNF, GDNF” value in test [1] is listed as “−”. The “differentiation / neurite length” value in test [2] is “±”. In the test with inner ear of guinea pigs, the “effect on the inner ear (electrophysiological activity, hearing threshold) in comparison to 9-methyl-β-carboline” value is given as “±”.

`COC(=O)CCn1c2ccccc2c2ccncc21` [compound J]: the “gene expression of BDNF, GDNF” value in test [1] is “−”. Besides, the “differentiation / neurite length” value in test [2] is reported as “±”. Moreover, the “effect on the inner ear (electrophysiological activity, hearing threshold) in comparison to 9-methyl-β-carboline” value with inner ear of guinea pigs is reported as “±”.

Regarding `c1ccc(Cn2c3ccccc3c3ccncc32)cc1` [compound I], the “gene expression of BDNF, GDNF” value in test [1] is reported as “−”. In addition, in test [2], the “differentiation / neurite length” value is on record as “−”. In addition, in the test with inner ear of guinea pigs, the “effect on the inner ear (electrophysiological activity, hearing threshold) in comparison to 9-methyl-β-carboline” value is listed as “−”.

Turning to `COCCn1c2ccccc2c2ccncc21` [compound G], the “gene expression of BDNF, GDNF” value in test [1] is on record as “±”. Besides, the “differentiation / neurite length” value in test [2] is “±”. For the same molecule, in the test on inner ear of guinea pigs, the “effect on the inner ear (electrophysiological activity, hearing threshold) in comparison to 9-methyl-β-carboline” value is recorded as “+”.

On to `CN(C)c1ccc2c(c1)c1ccncc1n2C` [compound (XIII)], for which, in test [1], the “gene expression of BDNF, GDNF” value is on record as “±”. In addition, the “differentiation / neurite length” value in test [2] is on record as “±”. For the same molecule, the “effect on the inner ear (electrophysiological activity, hearing threshold) in comparison to 9-methyl-β-carboline” value in the test with inner ear of guinea pigs is listed as “±”.

For `C=CCn1c2ccccc2c2ccncc21` [compound (XX)], the “gene expression of BDNF, GDNF” value in test [1] was “±”. Also, in test [2], the “differentiation / neurite length” value is recorded as “−”. The “effect on the inner ear (electrophysiological activity, hearing threshold) in comparison to 9-methyl-β-carboline” value with inner ear of guinea pigs is listed as “±”.

With `COc1nccc2c3cc(Cl)ccc3n(C)c12` [compound (XIV)], in test [1], the “gene expression of BDNF, GDNF” value is listed as “−”. For the same molecule, the “differentiation / neurite length” value in test [2] was “−”. Besides, the “effect on the inner ear (electrophysiological activity, hearing threshold) in comparison to 9-methyl-β-carboline” value in the test on inner ear of guinea pigs is recorded as “−”.

As for `C/C=C/C(C)=C\n1c2ccccc2c2ccnc(Cl)c21` [compound (IX)], in test [1], the “gene expression of BDNF, GDNF” value is listed as “−”. The “differentiation / neurite length” value in test [2] is given as “−”. Further, the “effect on the inner ear (electrophysiological activity, hearing threshold) in comparison to 9-methyl-β-carboline” value with inner ear of guinea pigs is recorded as “−”.

In the case of `Cc1nccc2c1[nH]c1ccccc12` [harman, 1-methyl-β-carboline, reference compound], the “gene expression of BDNF, GDNF” value in test [1] is “−”. Moreover, the neurite length entry in test [2] (110 μM, vs control group, P<0.001) is “increase in neurite length”. Further, in test [2], the “differentiation / neurite length” value is recorded as “−”. Further, the “effect on the inner ear (electrophysiological activity, hearing threshold) in comparison to 9-methyl-β-carboline” value with inner ear of guinea pigs was “−”.

In the case of `Cc1ccc2c(c1)c1ccnc(C(C)C)c1n2C` [compound (XVI)], the “gene expression of BDNF, GDNF” value in test [1] was “−”. Further, the “differentiation / neurite length” value in test [2] is “−”. Further, in the test on inner ear of guinea pigs, the “effect on the inner ear (electrophysiological activity, hearing threshold) in comparison to 9-methyl-β-carboline” value is given as “−”.

`CN(C)CCn1c2ccccc2c2ccncc21` [compound L]: the “gene expression of BDNF, GDNF” value in test [1] is on record as “±”. For the same molecule, in test [2], the “differentiation / neurite length” value is recorded as “+”. The “effect on the inner ear (electrophysiological activity, hearing threshold) in comparison to 9-methyl-β-carboline” value with inner ear of guinea pigs is “+”.

As for `CCCCCCn1c2ccccc2c2ccncc21` [compound B], in test [1], the “gene expression of BDNF, GDNF” value is recorded as “−”. Besides, the “differentiation / neurite length” value in test [2] was “−”. In addition, the “effect on the inner ear (electrophysiological activity, hearing threshold) in comparison to 9-methyl-β-carboline” value in the test on inner ear of guinea pigs is listed as “−”.

For the molecule `C=CCn1c2ccccc2c2ccncc21` [compound D], in test [1], the “gene expression of BDNF, GDNF” value is “+”. The “differentiation / neurite length” value in test [2] is “+”. Further, in the test with inner ear of guinea pigs, the “effect on the inner ear (electrophysiological activity, hearing threshold) in comparison to 9-methyl-β-carboline” value is “−”.

B1: BDNF: brain-derived neurotrophic factor (protein, UniProt P23560 19-247, looked up)
Neurotrophic factor BDNF …: APMKEANIRGQGGLAYPGVRTHGTLESVNGPKAGSRGLTSLADTFEHVIEELLDEDQKVRPNEENNKDADLYTSRVMLSSQVPLEPPLLFLLEEYKNYLDAANMSMRVRRHSDPARRGELSVCDSISEWVTAADKKTAVDMSGGTVTVLEKVPVSKGQLKQYFYETKCNPMGYTKEGCRGIDKRHWNSQCRTTQSYVRALTMDSKKRIGWRFIRIDTSCVCTLTIKRGR
Take B1: the “survival of cells of the spiral ganglion” value in test [3] was “neuroprotective properties”.

B2: GDNF: Glial cell line derived neurotrophic factor (protein, UniProt P39905 78-211, looked up)
Glial cell line-derived …: SPDKQMAVLPRRERNRQAAAANPENSRGKGRRGQRGKNRGCVLTAIHLNVTDLGLGYETKEELIFRYCSGSCDAAETTYDKILKNLSRNRRLVSDKVGQACCRPIAFDDDLSFLDDNLVYHILRKHSAKRCGCI
Take B2: the “survival of cells of the spiral ganglion” value in test [3] is given as “neuroprotective properties”.
